Experimental data taken from patent US9359298B2, “Cajanine structure analogous compound, preparation method and use” (INSTITUTE OF MEDICINAL BIOTECHNOLOGY, CHINESE ACADEMY OF …, priority 2011, dated 2016).
Values after ≈ are worked out from the molar mass of the structure shown. Where two headings read alike, the source gives them in different places.

Tests used:
Type in all cases: cell-based
[1] = test system: Influenza A virus (hanfang359/95); assay: Determination of anti-influenza virus activity (CPE in MDCK cells); details: for IC50: Influenza A virus, MDCK, 36 h; for anti-influenza virus activities compared with the lead compound cajanine: statement in words
Coxsackie virus B6 = assay: Coxsackie virus activity assay (CPE in Vero cells); details: for IC50: Vero
PC12 cells [2] = assay: Neuroprotective activity assay, rotenone injury to PC12 cells (MTT); details: for viability at 10 µM: Rattus norvegicus, PC-12, 48 h, read-out: rotenone (surviving PC12 cells, MTT 570 nm); for protective effect on rotenone injury to PC12 cells: statement in words
Method: (§1) Discard the original culture media from confluent monolayers of PC12 cells (simulated neuronal cells), add DMEM complete medium with 5% FBS, 5% horse serum gently beat upon the cells with a pipette to completely disperse them, inoculate 100 μl cell suspension at a density of […] per well to 96 hole plates treated with poly-lysine (0.1 mg/ml) in advance, culture for 24h. Divide the experimenting cells into control group, model group and dosing groups. Add complete medium to the control group. Model groups includes rotenone group and serum-deprived group, add rotenone to the corresponding modules with a final concentration of 4 μM rotenone to take effect on the cells for 48 h, add serum-deprived groups with serum-free DMEM medium to take effect on the cells for 48 h. Dosing groups also includes two groups, one using rotenone module as model, another using serum-deprived module as model, and both add in 10 μM test compounds during modeling. 48h later, add 10 μl 5 mg/ml MTT, subsequently discard the supernatant 4h later and add in 150 μl DMSO, measure 570 nm absorbance to represent the numbers of surviving cells.

PC12 cells [3] = assay: Neuroprotective activity assay, serum-deprived injury to PC12 cells (MTT); details: for viability at 10 µM: Rattus norvegicus, PC-12, 48 h, read-out: serum-deprived (surviving PC12 cells, MTT 570 nm); for protective effect on serum-deprived injury to PC12 cells: statement in words
Method: as §1

HIV-1 III B virus = assay: Anti-HIV activity assay (P24 antigen in MT-4 cells); details: for IC50: Human immunodeficiency virus 1, MT4, 96 h, read-out: HIV IC50; for anti-HIV viral activity: statement in words
HCV = assay: Anti-hepatitis C virus (HCV) activity assay (HCV RNA in Huh7.5 cells); details: for EC50: Hepatitis C virus, Huh7.5, 72 h, read-out: HCV EC50; for anti-HCV viral activity: statement in words
Method: Inoculate Huh7.5 cells into 96-well plates to a density of 3×10^4 cells/cm^2, culture for 24h, infect the cells with 45 IU/cell HCV supernatant, meanwhile, add drug solutions or solvent control for treatment.

[4] = read-out: COX-B6 IC50, Vero cells, about 100TCID50, CPE, Reed-Muench
[5] = 10 μM test compound, 4 μM rotenone, 48 h, Control 100.0 ± 8.9, Model 73.2 ± 7.8
[6] = 10 μM test compound, 48 h, Control 100.0 ± 9.2, Model 69.3 ± 4.1
[7] = MT-4 cells, HIV-1 III B 100TCID50, 96 h, P24 antigen
[8] = Huh7.5 cells, 72 h, HCV RNA by RT-PCR, Reed-Muench

Compound	IC50 [1] [µg/mL]	IC50 (Coxsackie virus B6; [4]) [µg/mL]	viability at 10 µM (PC12 cells [2]; [5]) [%]	protective effect on rotenone injury to PC12 cells (PC12 cells [2])	viability at 10 µM (PC12 cells [3]; [6]) [%]	protective effect on serum-deprived injury to PC12 cells (PC12 cells [3])	IC50 (HIV-1 III B virus; [7]) [µg/mL]	anti-HIV viral activity (HIV-1 III B virus)	EC50 (HCV; [8]) [µg/mL]	anti-HCV viral activity (HCV)	anti-influenza virus activities compared with the lead compound cajanine [1]	also measured
COc1cc(/C=C/c2ccccc2)cc(O)c1C/C=C(\C)CCC=C(C)C [Compound 10o]	> 2.06	0.96 (≈ 2.65 µM)	87.6 ± 5.4	the strongest activities	86.3 ± 3.8	the strongest activities	0.96 (≈ 2.65 µM)	stronger anti-HIV, HCV viral activities	1.32 (≈ 3.64 µM)	stronger anti-HIV, HCV viral activities		
COC(=O)c1c(/C=C/CCc2ccccc2)cc(OC)c(CC=C(C)C)c1O [Compound 8l, methyl 2-hydroxy-3-isopentenyl-4-methoxy-6-[(E)-4′-phenylbuten-1′-yl]benzoate]	5.75 (≈ 15.1 µM)	> 6.17	64.7 ± 1.8		51.1 ± 17		5.17 (≈ 13.6 µM)		5.95 (≈ 15.6 µM)			
COc1cccc(/C=C/c2cc(OC)c(CC=C(C)C)c(O)c2C(=O)O)n1 [1b′, 2-hydroxy-3-isopentenyl-4-methoxy-6-[(E)-2-(6-methoxypyrid-2-yl)ethenyl]benzoic acid]	4.62 (≈ 12.5 µM)	5.98 (≈ 16.2 µM)	87.2 ± 6.31		88.9 ± 1.9		3.19 (≈ 8.64 µM)	stronger anti-HIV, HCV viral activities	0.88 (≈ 2.38 µM)	stronger anti-HIV, HCV viral activities		
COc1cc(/C=C/c2cccc(C)c2)c(C(=O)O)c(O)c1CC=C(C)C [Compound 1f, 2-hydroxy-3-isopentenyl-4-methoxy-6-[(E)-3-methylstyryl]benzoic acid]	0.48 (≈ 1.36 µM)	4.65 (≈ 13.2 µM)	58 ± 4.5		31.7 ± 10.3		1.45 (≈ 4.11 µM)	stronger anti-HIV, HCV viral activities	0.53 (≈ 1.5 µM)	stronger anti-HIV, HCV viral activities	significantly stronger than the lead compound cajanine	
COc1cc(/C=C/c2ccccc2Cl)cc(O)c1CC=C(C)C [Compound 10b]	> 0.23							stronger anti-HIV, HCV viral activities		stronger anti-HIV, HCV viral activities		IC50 (Coxsackie virus B6; read-out: COX-B6 IC50): 6.38 µg/mL (≈ 19.4 µM); viability at 10 µM (PC12 cells [2]): 74.6 ± 6.3%; viability at 10 µM (PC12 cells [3]): 74.8 ± 5.2%; IC50 (HIV-1 III B virus): 0.3 µg/mL (≈ 0.912 µM); EC50 (HCV): 0.59 µg/mL (≈ 1.79 µM)
COc1cc(/C=C(\C(=O)O)c2ccccc2)c(C(=O)O)c(O)c1CC=C(C)C [Compound 1s]	0.54 (≈ 1.41 µM)	0.85 (≈ 2.22 µM)	88.7 ± 6.1		89.8 ± 3.2		0.75 (≈ 1.96 µM)	stronger anti-HIV, HCV viral activities	0.84 (≈ 2.2 µM)	stronger anti-HIV, HCV viral activities		
COC(=O)c1c(/C=C/c2ccccc2)cc(OC)cc1OC [Compound 6, methyl 2,4-dimethoxy-6-[(E)-styryl]benzoate]	> 2.05	> 2.06	74.4 ± 5.2		62.4 ± 7				> 12.2			IC50 (HIV-1 III B virus): > 2.06 µg/mL
COc1cc(/C=C/Cc2ccccc2)c(C(=O)O)c(O)c1CC=C(C)C [Compound 1k, 2-hydroxy-3-isopentenyl-4-methoxy-6-[(E)-3′-phenyl-propen-1′-yl]benzoic acid]	2.05 (≈ 5.82 µM)	> 2.06	60.4 ± 3.2		19.2 ± 0.5		2.4 (≈ 6.81 µM)		1.03 (≈ 2.92 µM)		significantly stronger than the lead compound cajanine	
COC(=O)c1c(/C=C/C2CCCCC2)cc(OC)c(CC=C(C)C)c1O [Compound 8p, methyl 2-hydroxy-3-isopentenyl-4-methoxy-6-[(E)-2-cyclohexyl-vinyl]benzoate]	10.3 (≈ 28.9 µM)	> 2.06	84.6 ± 5.9	the strongest activities	82.3 ± 5.6	the strongest activities	21.1 (≈ 58.9 µM)		11.4 (≈ 31.7 µM)			
COc1cc(/C=C/c2ccccc2)c(C(=O)O)c(OCC2CNCCN2)c1CC=C(C)C (stereo not shown) [Compound 26e, 2-(piperazin-2-yl)methoxy-3-isopentenyl-4-methoxy-6-[(E)-styryl]benzoic acid]	2.31 (≈ 5.29 µM)	1.32 (≈ 3.02 µM)	87.6 ± 5.6		85.6 ± 2.9		2.77 (≈ 6.35 µM)		2.28 (≈ 5.22 µM)			
COc1cc(/C=C/c2ccccc2)c(C(=O)NC(N)=O)c(O)c1CC=C(C)C [Compound 23a, N-aminoformyl-2-hydroxy-3-isopentenyl-4-methoxy-6-[(E)-styryl]benzamide]	0.09 (≈ 0.237 µM)	0.32 (≈ 0.841 µM)	85.6 ± 8.7		87.9 ± 5.8		0.74 (≈ 1.95 µM)	stronger anti-HIV, HCV viral activities	0.66 (≈ 1.73 µM)	stronger anti-HIV, HCV viral activities	significantly stronger than the lead compound cajanine	
COc1cc(/C=C/c2ccccc2C)c(C(=O)O)c(O)c1CC=C(C)C [Compound 1e, 2-hydroxy-3-isopentenyl-4-methoxy-6-[(E)-2-methylstyryl]benzoic acid]	> 2.47	3.26 (≈ 9.25 µM)	55.6 ± 9.9		30.6 ± 12		2.7 (≈ 7.66 µM)	stronger anti-HIV, HCV viral activities	0.47 (≈ 1.33 µM)	stronger anti-HIV, HCV viral activities		
COc1cccc(OC)c1/C=C/c1cc(O)c(CC=C(C)C)c(OC)c1 [Compound 10d, 2-isopentenyl-3-methoxy-5-[(E)-2′,6′-dimethoxy-styryl]phenol]	> 6.17	> 2.05	78.9 ± 6.1	the strongest activities	79.3 ± 5.4	the strongest activities	1.05 (≈ 2.96 µM)		2.37 (≈ 6.69 µM)			
2-isopentenyl-3-methoxy-5-[4′-methylcyclohexylene methyl]phenol [Compound 10n]												Influenza A virus (hanfang359/95) IC50 [1]: >0.69 µg/mL; COX-B6 IC50 (Coxsackie virus B6): >2.05 µg/mL; rotenone (surviving PC12 cells, MTT 570 nm) (PC12 cells [2]; [5]): 78.6 ± 3.2; serum-deprived (surviving PC12 cells, MTT 570 nm) (PC12 cells [3]; [6]): 79.6 ± 2.8; HIV IC50 (HIV-1 III B virus; [7]): 1.43 µg/mL; HCV EC50 (HCV; [8]): 0.89 µg/mL
COc1cc(/C=C/C=C/c2ccccc2)cc(O)c1CC=C(C)C [Compound 10m, 2-isopentenyl-3-methoxy-5-[(1′E,3′E)-phenylbutadiene-1′,3′-yl]phenol]	2.35 (≈ 7.33 µM)	6.12 (≈ 19.1 µM)	85.3 ± 7.1	the strongest activities	89.3 ± 6.4	the strongest activities	2.33 (≈ 7.27 µM)	stronger anti-HIV, HCV viral activities	1.75 (≈ 5.46 µM)	stronger anti-HIV, HCV viral activities	significantly stronger than the lead compound cajanine	
COc1cc(/C=C/Cc2ccccc2)cc(O)c1CC=C(C)C [Compound 10k, 2-isopentenyl-3′-methoxy-5-[(E)-3′-phenylpropen-1′-yl]phenol]	0.89 (≈ 2.89 µM)	> 2.06	84.6 ± 2.4	the strongest activities	85.6 ± 3.2	the strongest activities	1.06 (≈ 3.44 µM)		0.99 (≈ 3.21 µM)		significantly stronger than the lead compound cajanine	
